These results are taken from PMC8963105, “A Novel Modulator of the Renin–Angiotensin System, Benzoylaconitine, Attenuates Hypertension by Targeting ACE/ACE2 in Enhancing Vasodilation and Alleviating Vascular Inflammation” (Frontiers in Pharmacology, 2022).

The structures appear in SMILES notation.

One assay has as its target hrACE2 (Homo sapiens, UniProt Q9BYF1). The experiment in a line: SensoLyte390 ACE2 activity assay (enzyme kinetics, cell-free). Particulars: 37°C, 30 min, read-out: EC50 (ACE2 activity, excitatory effect). Format: biochemical. Here is the method: ACE and ACE2 activities were measured using the ACE activity assay kit and SensoLyte390 ACE2 activity assay kit (Anaspec, Fremont, CA, United States), respectively, according to the manufacturer’s instructions with some modifications. Briefly, rhACE solution dissolved in deionized water was used for analysis. ACE activity was measured in a reaction system with 50 μl of the sample and 50 μl of the ACE substrate solution with or without BAC (10^–4 to 10^–2 μM). ACE2 activity was assayed in the same manner as ACE activity. All assays were performed every 10 s for 30 min at 37°C using a Varioskan LUX fluorescence microplate reader (Thermo Fisher Scientific, Waltham, MA, United States). The autofluorescence value in each assay was subtracted from the measured values to generate the final results. The relative fluorescence unit of each sample was normalized to the corresponding total protein concentration, which was measured using a Pierce BCA protein assay kit (Thermo Fisher Scientific).

A further assay concerns ACE. The experiment in a line: ACE protein expression in HUVECs (Western blot, immunofluorescence). Type of assay: cell-based, human. Particulars: 24 h. The text has this:
Human umbilical vein endothelial cells (HUVECs) were isolated from umbilical cords as previously described ([Jaffe et al., 1973]). They were purchased from ATCC (cat# CRL-1444, Manassas, VA, United States) and cultured in endothelial cell medium (ECM, ScienCell, Carlsbad, CA, United States) supplemented with 5% FBS, 1% endothelial cell growth supplement, and 1% antibiotics (Sigma, St. Louis, MO, United States). Cells harvested between the third and tenth passages were used in the experiments. Cells were cultured until they were ∼80% confluent. […]
After treatment with different concentrations of BAC (Control, DMSO, 25, 50, and 100 μM, dissolved in 0.1% DMSO–DMEM) for 24 h, the cells were washed with PBS three times, fixed in 4% paraformaldehyde for 20 min, permeabilized with 0.3% Triton X-100 for 20 min, and then blocked with 5% BSA for 30 min at room temperature of 25°C. […] The samples were analyzed using a confocal laser scanning microscope (Zeiss LSM 510 META, Oberkochen, Germany).
The cell samples and tissue sample were collected and placed in ice rapidly. […] Protein concentration in cell lysates was measured using a Bio-Rad DC Protein Assay Kit […]. […]

A further assay relates to total NO. The experiment in a line: total NO in serum of SHRs. Format: in vivo, rat. Particulars: oral 14 days, dose-dependent. The text has this: All three MDAs (BAC, BMC, and BHC) were purchased from Nature-Standard Co., Ltd. (Shanghai, China) and their purities were all over 98%. The anti-hypertensive effects of MDAs were studied in both acute and chronic experiments. The 16-week-old SHRs were used in animal experiments, and each group had six rats. In the acute experiment, drug administration was via i.v. injection. For i.v. injection, the animals were randomly assigned into four groups: vehicle (0.1% DMSO–0.9% salt solution, n = 6), low-dose group (0.6 mg kg^−1 body weight, n = 6), medium-dose group (2 mg kg^−1 body weight, n = 6), and high-dose group (6 mg kg^−1 body weight, n = 6). The drug was administered using a venous catheter. […] Blood pressure was recorded in real time.
Total NO levels in serum obtained from SHRs treated with vehicle, BAC, or captopril for 14 days were quantified by using total nitric oxide assay kit (Beyotime, Shanghai, China) as described previously. The absorbance was measured using a microplate reader (Thermo Fisher Scientific) at 540 nm and calculated according to the standard curve. […]

Chain of hrACE2 (Q9BYF1 18-805): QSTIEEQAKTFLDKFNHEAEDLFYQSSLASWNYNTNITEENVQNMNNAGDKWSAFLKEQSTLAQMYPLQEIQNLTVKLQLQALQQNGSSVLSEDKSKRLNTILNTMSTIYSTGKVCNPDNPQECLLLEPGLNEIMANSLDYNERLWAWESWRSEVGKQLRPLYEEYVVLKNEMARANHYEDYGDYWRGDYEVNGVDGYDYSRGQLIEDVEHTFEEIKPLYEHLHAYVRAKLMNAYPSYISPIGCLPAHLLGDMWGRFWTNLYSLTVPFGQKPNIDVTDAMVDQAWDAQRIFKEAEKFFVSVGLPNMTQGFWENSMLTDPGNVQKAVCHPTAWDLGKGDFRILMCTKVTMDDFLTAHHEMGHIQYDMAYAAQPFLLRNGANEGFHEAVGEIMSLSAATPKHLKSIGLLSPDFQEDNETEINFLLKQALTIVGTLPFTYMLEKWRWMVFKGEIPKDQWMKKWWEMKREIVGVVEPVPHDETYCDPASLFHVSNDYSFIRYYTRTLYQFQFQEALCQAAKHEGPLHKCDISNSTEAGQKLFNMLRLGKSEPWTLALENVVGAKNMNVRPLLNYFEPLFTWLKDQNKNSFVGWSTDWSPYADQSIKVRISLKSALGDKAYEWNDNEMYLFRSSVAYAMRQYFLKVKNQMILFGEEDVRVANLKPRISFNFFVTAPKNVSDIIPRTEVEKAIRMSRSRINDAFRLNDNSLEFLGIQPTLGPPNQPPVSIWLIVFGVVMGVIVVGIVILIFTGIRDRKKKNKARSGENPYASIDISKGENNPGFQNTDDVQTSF

Regarding `CCN1CC2(COC)C(O)CC(OC)C34C5CC6(O)C(OC)C(O)C(O)(C5C6OC(=O)c5ccccc5)C(C(OC)C23)C14` (stereo not shown) [BAC, Benzoylaconitine], the EC50 at hrACE2 worked out at 1500 nM. Further, in the assay with ACE (HUVECs, 25, 50, 100 μM), the “protein expression of ACE” value was “inhibit the expression of ACE”. Moreover, in the assay with ACE (HUVECs, BAC 100 μM with or without proteasome inhibitor MG132 20 or 40 nM), the ACE protein degradation entry was “promote ACE protein degradation”. The “total NO level in serum” value in the assay on total NO is listed as “increase NO level”.
